Test results from patent US6303761A, “Triaminepentaacetic acid compound and paramagnetic metal complex prepared from using the compound as ligand” (Department of Health The Executive Yuan, Republic of China, priority 1999, dated 2001).
Values joined by “and” are separate entries in the source; they are usually repeats but may differ in a detail not shown here. Equal entries are not always repeated. Where two headings read alike, the source gives them in different places.

Experiments:
[1] = Protonation constants of the organic ligands (potentiometric titration, program PKAS); format: physicochemical; details: for pKa: aqueous me4nno3, 25.0 ± 0.1° C., aqueous Me4 NNO3, I = 0.10 mol dm^-3
Method: The ionic strength was 0.10 mol dm^-3 Me4 NNO3 ((CH3)4 NNO3). […] The titrant used was 0.1 mol dm^-3 NaOH with a titration amount of 0.005 ml/time.

[2] = Thermodynamic and conditional stability constants of the Ca^2+ complexes (potentiometric titration, program BEST); format: physicochemical; details: 25.0 ± 0.1° C., aqueous Me4 NNO3, I = 0.10 mol dm^-3
Method: (§1) The pH electrode was calibrated using two standard buffer solutions with pH 7.0±0.05 and pH 4.0±0.05 respectively. The ionic strength was 0.10 mol dm^-3 Me4 NNO3 ((CH3)4 NNO3). […] The titrant used was 0.1 mol dm^-3 NaOH with a titration amount of 0.005 ml/time.
(§2) (1) Direct Potentiometric Titration: The metal ion and ligand is mixed in 1:1 molar ratio.
(§3) (2) Ligand-ligand Competition Titration: The metal ion, ligand, and EDTA is mixed in 1:1:1 molar ratio.
(§4) M: metal ion, L: organic ligand, ML: metal complex The conditional stability constant is defined by equation (2): [formula]
(§5) The relationship between the conditional stability constant and the thermodynamic stability constant is defined by equation (3): [formula]
(§6) K2^H [H^+ ]^2 + . . . }^-1 =KthermαH

[3] = Thermodynamic and conditional stability constants of the Zn^2+ complexes (potentiometric titration, program BEST); format: physicochemical; details: 25.0 ± 0.1° C., aqueous Me4 NNO3, I = 0.10 mol dm^-3
Method: as §1, §2, §3, §4, §5, §6

[4] = Thermodynamic and conditional stability constants of the Cu^2+ complexes (potentiometric titration, program BEST); format: physicochemical; details: 25.0 ± 0.1° C., aqueous Me4 NNO3, I = 0.10 mol dm^-3
Method: as §1, §2, §3, §4, §5, §6

[5] = Selectivity constant of the ligand for Gd^3+ over Zn^2+; format: physicochemical
[6] = Selectivity constant of the ligand for Gd^3+ over Cu^2+; format: physicochemical
[7] = Selectivity constant of the ligand for Gd^3+ over Ca^2+; format: physicochemical
[8] = format: physicochemical
[9] = Species distribution of the ligands at various pH values (SPE, SPEPLOT); format: physicochemical; details: 7.0×10^-3 mol dm^-3 system
Description: The average difference between observed and calculated -log[H^+ ] was <0.04 throughout all titrations.
When pH=7.0, the concentration of [H2 L]^3- is the maximum (97.5%). In the pH 3-5 range, the dominant species is the third protonated species [H3 L]^2-. When pH=3.7, the concentration of [H3 L]^2- is the maximum (87.75%). […] When pH=9.8, the concentration of [HL]^4- is the maximum (77.5%). In the pH 2-3 range, the dominant species is the fourth protonated species [H4 L]^-. When pH=2.3, the concentration of [H4 L]^- is the maximum (60.9%). In the pH range greater than 11, the dominant species is the deprotonated species [L]^5-.
When pH=2.7, the concentration of [H4 L]^- is the maximum (55.9%). In the pH 3.5-7 range, the dominant species is the third protonated species [H3 L]^2-. When pH=5, the concentration of [H3 L]^2- is the maximum (97.7%). In the pH 7-9 range, the dominant species is the second protonated species [H2 L]^3-. When pH=8.1, the concentration of [H2 L]^3- is the maximum (86.5%). […] When pH=9.9, the concentration of [HL]^4- is the maximum (71.6%). In the pH range greater than 12, the dominant species is the deprotonated species [L]^5-. In the pH range less than 2, the dominant species is the totally protonated species [H5 L].
When pH=2.8, the concentration of [H4 L]^- is the maximum (45.9%). In the pH 3.5-7.5 range, the dominant species is the third protonated species [H3 L]^2-. When pH=5.2, the concentration of [H3 L]^2- is the maximum (99.0%). In the pH 8-9.5 range, the dominant species is the second protonated species [H2 L]^3-. When pH=8.6, the concentration of [H2 L]^3- is the maximum (78.8%). In the pH 9.5-11 range, the dominant species is the first protonated species [HL]^4-. When pH=10.1, the concentration of [HL]^4- is the maximum (67.2%). In the pH range greater than 12, the dominant species is the deprotonated species [L]^5-. In the pH range less than 2, the dominant species is the totally protonated species [H5 L].

pM value, Gd^3+ = details: pH 7.4, TL 1.1×10^-5, TM 1.0×10^-6 mol dm^-3
pM value, Ca^2+ = details: pH 7.4, TL 1.1×10^-5, TM 1.0×10^-6 mol dm^-3
pM value, Zn^2+ = details: pH 7.4, TL 1.1×10^-5, TM 1.0×10^-6 mol dm^-3
pM value, Cu^2+ = details: pH 7.4, TL 1.1×10^-5, TM 1.0×10^-6 mol dm^-3
liver = assay: MR imaging, liver enhancement, healthy rat; format: in vivo; details: 0.1 mmol/kg
Method: (§7) Sodium pentobarbital was injected into the tail veins of […] rats (which have a healthy liver or tumorous liver) in a dosage of 40-50 mg/kg. The rats were placed on the head coil of an 1.5 T magnetic resonance imaging instrument. The T1-weighted (TR/Te, 15/6.1 msec) image was obtained by turbo field echo with the number of signal average. The field of view (FOV), the cross-sectional thickness, and the image matrix were 22 cm, 4 mm, and 128×256 respectively.
(§8) Before injecting the contrast agent, a set of T1-weighted baseline images were taken. In the first five minutes, the images were taken at a very short time interval in order to evaluate the dynamic enhancement condition. Afterwards, the images were taken every 10, 20, 30, 40, 50, and 60 minutes in order to observe the continuous enhancement effect.
(§9) By means of the computer software contained in the MRI instrument, the region of interest (ROI) can be determined by the operator. The signal intensities (SI) of liver, phantom, and kidney were measured. The enhancement percentage of an organ (liver or kidney) and the enhancement percentage of liver relative to kidney were calculated by the following equations. The statistical method used was Wilcoxon Signed Rank Test. [formula] [formula]

kidney = assay: MR imaging, kidney enhancement, healthy rat; format: in vivo; details: 0.1 mmol/kg
Method: as §7, §8, §9

[10] = in vivo; cited from earlier work
[11] = Relaxivity R1 and its pH dependence
[12] = read-out: first protonation constant log K1^H, [HL]/[L][H]
[13] = read-out: fourth protonation constant log K4^H, [H4 L]/[H3 L][H]
[14] = read-out: second protonation constant log K2^H, [H2 L]/[HL][H]
[15] = read-out: third protonation constant log K3^H, [H3 L]/[H2 L][H]
[16] = pH 7.4, plasma concentrations of Ca^2+, Cu^2+ and Zn^2+
[17] = 25.0 ± 0.1° C., aqueous Me4 NNO3, I = 0.10 mol dm^-3

Structure (SMILES)	basicity, Σ PKa [1]	pKa [1, 12]	pKa [1, 13]	pKa [1, 14]	pKa [1, 15]	log K [CaHL]/[CaL][H] [2]	log K [ZnHL]/[ZnL][H] [3]	log K [CuHL]/[CuL][H] [4]	log K [CuL]/[Cu][L] [4]	selectivity constant log K(Gd/Ca) [7]	modified selectivity constant log K sel' [8, 16]	maximum concentration of first protonated species [HL]^4- [9]	maximum concentration of fourth protonated species [H4 L]^- [9]	maximum concentration of second protonated species [H2 L]^3- [9]	maximum concentration of third protonated species [H3 L]^2- [9]	pH of maximum concentration of [H2 L]^3- [9]	pH of maximum concentration of [H3 L]^2- [9]	pH of maximum concentration of [H4 L]^- [9]	pH of maximum concentration of [HL]^4- [9]	log K [GdL]/[Gd][L] [17]	also measured
O=C(O)CN(CCCN(CC(=O)O)CC(=O)O)CCN(CC(=O)O)CC(=O)O [TTDA, 3,6,10-tri(carboxymethyl)-3,6,10-triazadodecanedioic acid]	27.44	10.6	2.8	8.92	5.12	6.06	7.41	5.52	19.31	8.32	8.44	77.5%	60.9%	97.5%	87.75%	7.0 pH	3.7 pH	2.3 pH	9.8 pH	22.77	selectivity constant log K(Gd/Zn) [5]: 4.18; selectivity constant log K(Gd/Cu) [6]: 3.46; pH range in which [H2 L]^3- is dominant [9]: 5-9 pH; pH range in which [H3 L]^2- is dominant [9]: 3-5 pH; pH range in which [H4 L]^- is dominant [9]: 2-3 pH; pH range in which [HL]^4- is dominant [9]: 9-10.5 pH; pH range in which deprotonated species [L]^5- is dominant [9]: greater than 11 pH; conditional stability constant log KGdL' (pH 7.4): 18.04; pM (Gd^3+) (pM value, Gd^3+): 17.03; pM (Ca^2+) (pM value, Ca^2+): 9.73; pM (Zn^2+) (pM value, Zn^2+): 13.22; pM (Cu^2+) (pM value, Cu^2+): 13.58
O=C(O)CN(CCCN(CC(=O)O)CC(=O)O)CCCN(CC(=O)O)CC(=O)O [TTRA, 3,7,11-tri(carboxymethyl)-3,7,11-triazatridecanedioic acid]	29.85	10.6	3.1	9.12	7	8.02	4.15	8.68	17.92	2.37	2.64	71.6%	55.9%	86.5%	97.7%	8.1 pH	5 pH	2.7 pH	9.9 pH	15.89	log K [CaL]/[Ca][L] [2]: 13.52; log K [ZnL]/[Zn][L] [3]: 19.37; pH range in which [H2 L]^3- is dominant [9]: 7-9 pH; pH range in which [H3 L]^2- is dominant [9]: 3.5-7 pH; pH range in which [H4 L]^- is dominant [9]: 2-3.5 pH; pH range in which [HL]^4- is dominant [9]: 9.5-10.5 pH; pH range in which deprotonated species [L]^5- is dominant [9]: greater than 12 pH; pH range in which totally protonated species [H5 L] is dominant [9]: less than 2 pH; log K [GdHL]/[GdL][H] [17]: 5.95; conditional stability constant log KGdL' (pH 7.4): 10.93; pM (Gd^3+) (pM value, Gd^3+): 9.80; pM (Ca^2+) (pM value, Ca^2+): 8.20; pM (Zn^2+) (pM value, Zn^2+): 13.67; pM (Cu^2+) (pM value, Cu^2+): 13.12
O=C([O-])CN(CCN(CC(=O)[O-])CC(=O)[O-])CCN(CC(=O)[O-])CC(=O)[O-].[Gd+3] [[Gd(DTPA)]^2-]	–	–	–	–	–	–	–	–	–	–	–	–	–	–	–	–	–	–	–	22.46	modified selectivity constant log K sel' ([8]; pH 7.4): 7.07 and 7.04; time to maximum liver enhancement (liver): ≤ 1 min; liver enhancement after 30 minutes (liver; 30 minutes): 24±7%; maximum liver enhancement (liver; within 1 minute): 57±9%; time to maximum kidney enhancement (kidney): 1 min; kidney enhancement at 30 minutes (kidney; 30 minutes): 109±14%; conditional stability constant (log Kcond) (pH 4): 11.25; stability constant larger than that of [Gd(DTPA-BMA)] by (pH 7.4): 3.2; stability constant under physiological conditions (pH 7.4) (pH 7.4): 22.46; stability constant (log KML) larger than that of [Gd(DTPA-BMA)] by (pH 11): 5.5; LD50 [10]: 5.6 mmol/kg; Relaxivity R1 ([11]; pH 7.5 ± 0.1): 3.71 dm^3 mmol^-1 s^-1 and 3.71 ± 0.05 dm^3 mmol^-1 s^-1; Relaxivity R1 (conclusion) ([11]; pH not given): 3.70 dm^3 mmol^-1 s^-1
